Legend:
[1] = in vitro; details: human, Caco-2, pH 7.4
Method: Example 37: Caco-2 Permeability Assay
The goal of this assay was to evaluate the intestinal absorption potential of drug candidates using Caco-2 cell lines.
HBSS buffer with 0.3% DMSO and 5 μM LY: add 150 μL DMSO and 50 μL LY (5 mM) into 50 ml HBSS buffer (pH 7.4).
HBSS buffer with 0.1% DMSO and 5 μM LY: add 50 μL DMSO and 50 μL LY (5 mM) into 50 mL HBSS buffer (pH 7.4).
HBSS buffer with 0.3% DMSO: add 150 μL DMSO into 50 ml HBSS buffer (pH 7.4).
HBSS buffer with 0.1% DMSO: add 50 μL DMSO into 50 ml HBSS buffer (pH 7.4).
Prepare HBSS buffer with 0.4% DMSO: add 200 μL DMSO into 50 ml HBSS buffer (pH 7.4).
Prepare HBSS buffer with 0.4% DMSO and 5 μM LY: add 200 μL DMSO and 50 μL LY (5 mM) into 50 ml HBSS buffer (pH 7.4).
4. Measure TEER Take cell culture plate out of incubator, wash the cell monolayers with HBSS buffer, and then measure TEER values at Rm temperature. 5. Centrifuge Centrifuge the compound solution (from step 3) at 4000 rpm for 5 min before loading to donor chambers. 6. Dosing Add solution based on the volumes listed in the following table (make sure to take extra 100 μL of donor sample for T0 as Backup).
7. Apical LYT0 samples To determine LY concentration in the apical chember, take 100 μL sample from apical chambers into an opaque plate for LYT0. 8. Prewarm Prewarm apical and basolateral plates at 37° C. for about 5 min, then begin transport by placing the apical plate onto basolateral plate. 9. Incubation Keep the plates in incubator at 37° C. for 90 min. 10. Standard Curve preparation
11. Transport termination Separate the apical plate from the basolateral plate after 90-min incubation.
Receiver sample: 60 μL of receiver sample+60 μL ACN with IS (Osalmid or Imipramine)
Study details: Test concentration 10 μM
Test systems: Caco-2/HBSS solution
Incubation conditions: 0, 90 min at 37° C.
Sample size: Duplicates (n=2)
Bioanalytical method: LC-MS/MS
For Millicell-24 Cell Culture Plates: surface area of the membrane=0.7 cm^2, VA=0.8 mL (A-to-B) or 0.4 mL (B-to-A)
1. Papp values were calculated based on calculated concentrations.
The compound numbers correspond to the compound numbers in Table 1.

[2] = target: T1, Jurkat cells expressing CXCR4 (Homo sapiens, UniProt P61073); experiment: Chemokine (CXCL12-AF647) binding inhibition assay; details: CXCL12-AF647 25 ng/mL, read-out: IC50 CXCL-12 binding Jurkat
T1 construct: endogenous in cells; host or cells: Jurkat
Method: Chemokine (CXCL12-AF647) Binding Inhibition Assay
Jurkat cells expressing CXCR4 were washed once with assay buffer (Hanks' balanced salt solution with 20 mM HEPES buffer and 0.2% bovine serum albumin, pH 7.4) and then incubated for 15 min at room temperature with the test compounds diluted in assay buffer at dose-dependent concentrations. Subsequently, CXCL12-AF647 (25 ng/mL) was added to the compound-incubated cells. The cells were incubated for 30 min at room temperature. Thereafter, the cells were washed twice in assay buffer, fixed in 1% paraformaldehyde in PBS, and analyzed on the FL4 channel of a FACSCalibur flow cytometer equipped with a 635-nm red diode laser (Becton Dickinson, San Jose, Calif., USA).
The percentages of inhibition of CXCL12-AF647 binding were calculated according to the formula: [1−((MFI−MFINC)/(MFIPC−MFINC))]×100 where MFI is the mean fluorescence intensity of the cells incubated with CXCL12-AF647 in the presence of the inhibitor, MFINC is the mean fluorescence intensity measured in the negative control (i.e., autofluorescence of unlabeled cells), and MFIPC is the mean fluorescence intensity of the positive control (i.e., cells exposed to CXCL12-AF647 alone).

[3] = target: T2, CXCR-4 transfected U87 cell line (U87.CXCR4) (Homo sapiens, UniProt P61073); experiment: Intracellular CXCL-12-induced calcium mobilization assay (FLIPR); type: cell-based; details: U87.CXCR4 cells; CXCL-12 25-50 ng/mL; compound added 15 min before; read-out: IC50 CXCL-12 Ca^2+ flux U87.CXCR4+
T2 construct: expressed in transfected cells; host or cells: U87 (U87.CXCR4)
Method: Example 36: REGA Screening Assay
Intracellular CXCL-12-Induced Calcium Mobilization Assay
Intracellular calcium mobilization induced by chemokines or chemokine-derived peptides were evaluated using a calcium responsive fluorescent probe and a FLIPR system. The CXCR-4 transfected U87 cell line (U87.CXCR4) cells were seeded in gelatine-coated black-wall 96-well plates at 20,000 cells per well and incubated for 12 hours. Cells were then loaded with the fluorescent calcium probe Fluo-2 acetoxymethyl at 4 μM final concentration in assay buffer (Hanks' balanced salt solution with 20 mM HEPES buffer and 0.2% bovine serum albumin, pH 7.4) for 45 min at 37° C. The intracellular calcium mobilization induced by the CXCL-12 (25-50 ng/mL) was then measured at 37° C. by monitoring the fluorescence as a function of time in all the wells simultaneously using a fluorometric imaging plate reader (FLIPR Tetra, Molecular Devices).

T2 sequence (P61073 whole entry): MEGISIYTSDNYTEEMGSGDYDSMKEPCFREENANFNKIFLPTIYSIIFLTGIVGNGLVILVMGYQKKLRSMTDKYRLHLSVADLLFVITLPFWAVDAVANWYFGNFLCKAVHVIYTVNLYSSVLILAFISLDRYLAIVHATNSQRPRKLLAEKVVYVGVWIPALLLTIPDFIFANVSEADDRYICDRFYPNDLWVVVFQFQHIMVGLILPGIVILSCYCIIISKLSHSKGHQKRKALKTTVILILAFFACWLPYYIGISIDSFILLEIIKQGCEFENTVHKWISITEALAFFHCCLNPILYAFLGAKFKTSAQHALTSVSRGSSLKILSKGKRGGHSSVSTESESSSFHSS
T1 sequence (P61073 whole entry): as above

| Structure (SMILES) | Papp A→B at 90 min, 10 μM [1] | Papp B→A at 90 min, 10 μM [1] | efflux ratio at 90 min, 10 μM [1] | IC50 [2] | IC50 [3] |
| --- | --- | --- | --- | --- | --- |
| Cc1cccnc1[C@@H]1CCC[C@H](c2nc3ccccc3n2C2CCN(C)CC2)N1C [I-130] | 10 to 30 ×10⁻⁶ cm/s | 10 to 30 ×10⁻⁶ cm/s | 0.1 to 10 | 0.01 to 100 nM | 0.01 to 100 nM |
| Cc1cccnc1[C@@H]1CCC[C@H](c2nccn2C2CCNCC2)N1C [I-179] | 0.1 to 10 ×10⁻⁶ cm/s | 10 to 30 ×10⁻⁶ cm/s | 10 to 30 | 0.01 to 100 nM | 100 to 1000 nM |
| Cc1cccnc1[C@@H]1CCC[C@H](c2nc3cccc(N4CCN(c5ccccn5)CC4)c3[nH]2)N1 [I-162] | 10 to 30 ×10⁻⁶ cm/s | 10 to 30 ×10⁻⁶ cm/s | 0.1 to 10 | 100 to 1000 nM | ≥ 1000 nM |
| Cc1cccnc1[C@@H]1CCC[C@H](c2nc3cccc(N4CCNC5(CC5)C4)c3[nH]2)N1C [I-129] | 10 to 30 ×10⁻⁶ cm/s | 10 to 30 ×10⁻⁶ cm/s | 0.1 to 10 | 0.01 to 100 nM | 100 to 1000 nM |
| CO[C@@H]1C[C@H](c2nc3cccc(N4CCN(C)CC4)c3[nH]2)N(C)[C@H](c2ncccc2C)C1 [I-102] | 0.1 to 10 ×10⁻⁶ cm/s | 10 to 30 ×10⁻⁶ cm/s | 0.1 to 10 | 0.01 to 100 nM | 100 to 1000 nM |
| Cc1cccnc1[C@@H]1CCC[C@H](c2nc3ccccc3n2CC2CCCN(C)C2)N1C (stereo partly drawn) [I-13, 2-((2R,6S)-1-methyl-6-(3-methylpyridin-2-yl)piperidin-2-yl)-1-((1-methylpiperidin-3-yl)methyl)-1H-benzo[d]imidazole] | 0.1 to 10 ×10⁻⁶ cm/s | 10 to 30 ×10⁻⁶ cm/s | 0.1 to 10 | 0.01 to 100 nM | 0.01 to 100 nM |
| Cc1cccnc1[C@@H]1CCC[C@H](c2nc3ccccc3[nH]2)N1Cc1ccccc1-n1cccn1 [I-21, 2-((2R,6S)-1-(2-(1H-pyrazol-1-yl)benzyl)-6-(3-methylpyridin-2-yl)piperidin-2-yl)-1H-benzo[d]imidazole] | 10 to 30 ×10⁻⁶ cm/s | 10 to 30 ×10⁻⁶ cm/s | 0.1 to 10 | 0.01 to 100 nM | 0.01 to 100 nM |
| Cc1cccnc1[C@@H]1CCC[C@H](c2nc3ccccc3n2CCCN2CCOCC2)N1C [I-18, 4-(3-(2-((2R,6S)-1-methyl-6-(3-methylpyridin-2-yl)piperidin-2-yl)-1H-benzo[d]imidazol-1-yl)-propyl)morpholine] | 10 to 30 ×10⁻⁶ cm/s | 10 to 30 ×10⁻⁶ cm/s | 0.1 to 10 | 0.01 to 100 nM | 0.01 to 100 nM |
| Cc1cccnc1[C@@H]1CCC[C@H](c2nc3cccc(N4CCN(C)CC4=O)c3[nH]2)N1C [I-73] | 0.1 to 10 ×10⁻⁶ cm/s | 10 to 30 ×10⁻⁶ cm/s | > 30 | 0.01 to 100 nM | 100 to 1000 nM |
| Cc1cccnc1[C@H]1CCC[C@@H](c2nc3cccc(N4CCN(C)CC4)c3[nH]2)N1C (single isomer, unassigned) [I-3b] | 0.1 to 10 ×10⁻⁶ cm/s | 0.1 to 10 ×10⁻⁶ cm/s |  | 0.01 to 100 nM | 0.01 to 100 nM |
| Cc1cccnc1[C@@H]1CCC[C@H](c2nc3ccccc3n2Cc2ccccc2-n2cccn2)N1 [I-161] | > 30 ×10⁻⁶ cm/s | > 30 ×10⁻⁶ cm/s | 0.1 to 10 | 100 to 1000 nM | ≥ 1000 nM |
| Cc1cccnc1[C@@H]1CCC[C@H](c2nc3cccc(N4C5CCC4CN(C)C5)c3[nH]2)N1C [I-57] | 10 to 30 ×10⁻⁶ cm/s | 10 to 30 ×10⁻⁶ cm/s | 0.1 to 10 | 0.01 to 100 nM | 0.01 to 100 nM |
| Cc1cccnc1[C@@H]1CCC[C@H](c2nc3ccccc3n2CCC#N)N1 [I-159] | 10 to 30 ×10⁻⁶ cm/s | 10 to 30 ×10⁻⁶ cm/s | 0.1 to 10 | ≥ 1000 nM | ≥ 1000 nM |
| Cc1cccnc1[C@@H]1CCC[C@H](c2nc3c(N4CCN(C)CC4)cccc3n2C)N1 [I-141] | 10 to 30 ×10⁻⁶ cm/s | 10 to 30 ×10⁻⁶ cm/s | 0.1 to 10 | ≥ 1000 nM | ≥ 1000 nM |
| Cc1cccnc1[C@@H]1CCC[C@H](c2nc3cccc(N4C5CCC4CNC5)c3[nH]2)N1C [I-99] | 0.1 to 10 ×10⁻⁶ cm/s | > 30 ×10⁻⁶ cm/s | > 30 | 0.01 to 100 nM | 0.01 to 100 nM |
| CN1CCN(c2cccc3nc([C@H]4CCC[C@@H](c5ncn6ccccc56)N4C)[nH]c23)CC1 [I-93] | 10 to 30 ×10⁻⁶ cm/s | 10 to 30 ×10⁻⁶ cm/s | 0.1 to 10 | 100 to 1000 nM | ≥ 1000 nM |
| Cc1cccnc1[C@@H]1CCC[C@H](c2nccn2Cc2ccccc2-n2cccn2)N1 [I-167] | > 30 ×10⁻⁶ cm/s | > 30 ×10⁻⁶ cm/s | 0.1 to 10 | ≥ 1000 nM | ≥ 1000 nM |
| Cc1cccnc1[C@@H]1CCC[C@H](c2nc3ccccc3n2CCCN(C)C)N1C [I-5, N,N-dimethyl-3-(2-((2R,6S)-1-methyl-6-(3-methylpyridin-2-yl)piperidin-2-yl)-1H-benzo[d]imidazol-1-yl)propan-1-amine] | 0.1 to 10 ×10⁻⁶ cm/s | 0.1 to 10 ×10⁻⁶ cm/s | 0.1 to 10 | 0.01 to 100 nM | 0.01 to 100 nM |
| Cc1ccnc([C@@H]2CCC[C@H](c3nc4cccc(N5CCN(C)CC5)c4[nH]3)N2C)c1 [I-71] | 10 to 30 ×10⁻⁶ cm/s | 10 to 30 ×10⁻⁶ cm/s | 0.1 to 10 | 100 to 1000 nM | ≥ 1000 nM |

From patent US10988465B2, “CXCR4 inhibitors and uses thereof” (X4 Pharmaceuticals, Inc., priority 2016, dated 2021)
